Results published in publication PMC8213730, “α-Helical peptidic scaffolds to target α-synuclein toxic species with nanomolar affinity” (Nature Communications, 2021).

Experiments:
[1] = test system: α-synuclein (αS) amyloid aggregation; test: αS amyloid aggregation kinetics by thioflavin-T fluorescence; format: biochemical; settings: 70 μM αS with 35, 14, 7 (3.5) μM peptide, PBS, 37 °C
Procedure: αS amyloid aggregation was monitored in a 96 wells plate (non-treated) (Sarstedt, Germany) containing Teflon polyballs (1/8′′ diameter) (Polysciences Europe GmbH, Eppelheim, Germany) as described by Pujols and coworkers. Each well contained 150 μL solutions of 70 μM αS in PBS buffer with 40 μM thioflavin-T and the corresponding concentration of peptide. Plates were incubated at 37 °C, 100 rpm in an orbital culture shaker Max-Q 4000 (Thermo Fisher Scientific, Waltham, USA). Aggregation was analyzed every 2 h using a Victor3.0 Multilabel Reader Software-PerkinElmer 2030. (PerkinElmer, Waltham, USA). End-point measurements were performed after 32 h of incubation. Fluorescence intensity was measured in triplicate by exciting with a 430–450 nm filter and collecting the emission with a 480–510 nm filter. The resulting kinetics were normalized to the maximum fluorescence of the αS control (untreated).

[2] = biological target: T1, α-synuclein (αS) type A* oligomers (Homo sapiens, UniProt P37840, N122C); test: dcFCCS binding of labelled peptide to αS type A* oligomers
T1 construct: made in house; host or cells: Escherichia coli BL21 (DE3), pET21a

[3] = biological target: T2, α-synuclein (αS) type B* oligomers (Homo sapiens, UniProt P37840, N122C); test: dcFCCS binding of labelled peptide to αS type B* oligomers
T2 construct: made in house; host or cells: Escherichia coli BL21 (DE3), pET21a
Procedure: (§1) This variant was expressed and purified as described above but including 5 mM DTT in all purification steps. The protein was labeled with maleimide-modified Alexa Fluor 488 (AF488) (Invitrogen, Carlsbad, USA) for 15–20 h at 4 °C in the dark. After quenching the reaction with 10 mM DTT, free unreacted dye in the protein solution was subsequently separated using a P10 desalting column (GE Healthcare, Waukesha, USA), and the labeled protein solution was flash frozen with liquid nitrogen and stored at −80 °C. […] The same labeling and purification strategy were followed as for αS, although in this case the unreacted free dye was removed from the protein solution using a polyacrylamide desalting column (Thermo Fisher Scientific, Waltham, USA).
(§2) For the isolation of type B* oligomers purified αS was dialyzed against Milli-Q water and lyophilized for 48 h in aliquots of 6 mg. The aliquots were resuspended in 500 μL of PBS pH 7.4 to a final concentration of ca. 800 μM, filtered through 0.22 μm filters and incubated at 37 °C without agitation for 20–24 h.

[4] = biological target: T3, α-synuclein (αS) sonicated fibrils (Homo sapiens, UniProt P37840, N122C); test: dcFCCS binding of labelled peptide to αS sonicated fibrils
T3 construct: made in house; host or cells: Escherichia coli BL21 (DE3), pET21a
Procedure: as §1, §2

[5] = biological target: α-synuclein N122C labelled with Alexa Fluor 488, monomer (UniProt P37840); test: FCS molecular brightness; sonicated fibril sample; brightness of the aggregates compared with that of the αS monomer; average number of αS molecules per aggregate
[6] = biological target: α-synuclein sonicated amyloid fibrils (AF488-labelled αS N122C) (UniProt P37840); test: dual-color fluorescence cross-correlation spectroscopy (dcFCCS)
[7] = biological target: α-synuclein type A* oligomers (AF488-labelled αS N122C) (UniProt P37840); test: as above
[8] = biological target: α-synuclein type B* oligomers (AF488-labelled αS N122C) (UniProt P37840); test: as above

With LELLEELLKLLEDLLKKLL [Anionic_scaffold] the “anti-aggregation (inhibitory) activity, Th-T titration” value [1] was “does not inhibit”.

Work on `CC[C@H](C)[C@H](NC(=O)[C@H](CCCCN)NC(=O)[C@H](CCC(=O)O)NC(=O)[C@H](CCCCN)NC(=O)[C@H](CO)NC(=O)[C@H](CCCCN)NC(=O)[C@H](CCCNC(=N)N)NC(=O)[C@H](Cc1ccccc1)NC(=O)[C@H](Cc1ccccc1)NC(=O)[C@H](CC(=O)O)NC(=O)CNC(=O)[C@H](CC(C)C)NC(=O)[C@@H](N)CC(C)C)C(=O)NCC(=O)N[C@@H](CCCCN)C(=O)N[C@@H](CCC(=O)O)C(=O)N[C@@H](Cc1ccccc1)C(=O)N[C@@H](CCCCN)C(=O)N[C@@H](CCCNC(=N)N)C(=O)N[C@H](C(=O)N[C@H](C(=O)N[C@@H](CCC(N)=O)C(=O)N[C@@H](CCCNC(=N)N)C(=O)N[C@H](C(=O)N[C@@H](CCCCN)C(=O)N[C@@H](CC(=O)O)C(=O)N[C@@H](Cc1ccccc1)C(=O)N[C@@H](CC(C)C)C(=O)N[C@@H](CCCNC(=N)N)C(=O)N[C@@H](CC(N)=O)C(=O)N[C@@H](CC(C)C)C(=O)N[C@H](C(=O)N1CCC[C@H]1C(=O)N[C@@H](CCCNC(=N)N)C(=O)N[C@H](C(=O)N[C@@H](CCC(=O)O)C(=O)N[C@@H](CO)C(=O)O)[C@@H](C)O)C(C)C)[C@@H](C)CC)C(C)C)[C@@H](C)CC` [LL-37] yielded a Kd [2] of 1.92 nM, a Kd [3] of 3.62 nM and a Kd [4] of 5.14 nM.

For “LELLEKLLKLLKDLLKKLL [Scaffold_19, only Leu, Asp, Glu and Lys]”, the “anti-aggregation (inhibitory) activity, Th-T titration” value [1] was “same anti-aggregation activity than the parental variant”.

In the case of “LELLAKLLKLLKDLLGKLL [All_Leu19, variant of All-Leu devoid of the last three C-terminal residues]”, the “anti-aggregation (inhibitory) activity, Th-T titration” value [1] is reported as “retained the inhibitory activity”.

In the case of “α-synuclein N122C labelled with Alexa Fluor 488, monomer (from UniProt P37840 1-140) (natural protein)”, the stoichiometry N (αS molecules per aggregate) [5] is reported as 107.

In the case of “LL-37 with a single engineered N-terminal cysteine labelled with Atto647N (peptide)”, the stoichiometry N (binding sites per aggregate) [6] is reported as 181, the stoichiometry N (binding sites per aggregate) [7] is reported as 3 and the stoichiometry N (binding sites per aggregate) [8] is reported as 64.
